In patent publication US20260240879A1, “TOPICAL PALA THERAPY FOR CANCER” (priority 2023, published 2026):
“Also recorded” adds a separate entry of the source.

Tests used:
[1] = tested on: cytokines and chemokines in treated skin; assay: Cytokine/chemokine profile of treated skin lysates (U-PLEX); settings: for expression of inflammatory cytokine/chemokine panel in treated skin (in words): daily topical 2% PALA, 5% IMQ or 5% 5-FU, 7 days, vs vehicle; for IL-17C, Mean (SEM) / IL-17A, Mean (SEM) / GM-CSF, Mean (SEM) / IL-6, Mean (SEM) / KC, Mean (SEM) / RANTES, Mean (SEM): treated skin lysate, day 7, 2% PALA, 5% IMQ, 5% 5-FU, n = 5/group; for IL-17C, Mean (SEM): vehicle 0.5 (0.03); for IL-17A, Mean (SEM): vehicle 0.6 (0.1); for GM-CSF, Mean (SEM): vehicle 0.8 (0.1); for IL-6, Mean (SEM): vehicle 25.4 (3.2); for KC, Mean (SEM): vehicle 26.3 (6.4); for RANTES, Mean (SEM): vehicle 43.7 (3.2)
Procedure: The topical formulations of 2% PALA/50% acetone/10% glycerol, 5% imiquimod (IMQ), 5% 5-FU (5-FU), vehicle (50% acetone/10% glycerol) control, and Aquaphor were applied (~0.05 g/mouse) daily to the dorsal skin of SKH1-Elite female mice (8 weeks of age; n=5/group) for 7 days. […] Mice were monitored daily for weight change, skin appearance, and signs of distress.
Skin protein lysates were made by homogenizing frozen tissue with a pestle and scissors in RIPA buffer (50 mM Tris, pH8, 150 mM NaCl, 0.5% sodium deoxycholate, 1% NP-40, 0.1% sodium dodecyl sulfate, lx Pierce protease inhibitor cocktail (A32965, ThermoFisher)). Cytokines and chemokines were quantified from 25 μg of lysate using a custom 10-plex U-PLEX panel (K15069L-2; Meso Scale Discovery) that included: GM-CSF, KC/CXCL1, IFNα, IFNβ, IFNγ, IL-10, IL-6, IL-12p70, IL-17A, IL-17C, IL-17F, IP-10/CXCL10, MCP-1/CCL2, RANTES/CCL5, and TNFα. The MESO SECTOR S 600 plate reader (ICOAA-0; Meso Scale Discovery) was used to collect the U-Plex data and data was analyzed using MSD Discovery Workbench 4.0 software.

[2] = Skin irritation testing, daily topical application for 7 days; settings: for skin histology on day 7 / spleen weight on day 7 / skin irritation apparent: daily topical 2% PALA, 5% IMQ or 5% 5-FU; for skin irritation apparent / weight change: naive mice; for weight change: daily topical 5% IMQ or 5% 5-FU, in contrast to vehicle and 2% PALA
Procedure: The topical formulations of 2% PALA/50% acetone/10% glycerol, 5% imiquimod (IMQ), 5% 5-FU (5-FU), vehicle (50% acetone/10% glycerol) control, and Aquaphor were applied (~0.05 g/mouse) daily to the dorsal skin of SKH1-Elite female mice (8 weeks of age; n=5/group) for 7 days. […] Mice were monitored daily for weight change, skin appearance, and signs of distress. […] At harvest, spleen weights and colon lengths were measured.

[3] = Toxicity markers in UVB-tumor-bearing mice under topical treatment (weight, SAA, colon length, fecal LCN2); settings: 5% (w/w) 5-fluorouracil, daily topical
Procedure: Serum amyloid A levels were measured in plasma samples using the Mouse SAA ELISA kit (E-90SAA, Immunology Consultants Laboratory, Inc.) according to manufacturer's instructions. Lipocalin-2 (LCN2) was quantified from pre-weighed stool samples homogenized in 0.5 mL PBS using the Mouse Lipocalin-2/NGAL DuoSet ELISA (DY1857) and DuoSet Ancillary Reagent Kit 2 (DY008, R&D Systems).

[4] = tested on: UVB-induced NMSC (AK lesions and SCC tumors); assay: UVB-induced NMSC mouse model: tumor number, area, growth phenotype and grade; settings: 2% PALA or 5% IMQ, daily, 4 weeks

IL-17C, Mean (SEM) [1]	IL-17A, Mean (SEM) [1]	GM-CSF, Mean (SEM) [1]	IL-6, Mean (SEM) [1]	KC, Mean (SEM) [1]	RANTES, Mean (SEM) [1]	SMILES	expression of inflammatory cytokine/chemokine panel in treated skin (in words) [1]	skin histology on day 7 [2]	spleen weight on day 7 [2]	skin irritation apparent [2] [days]	weight change [2]	early termination of animals at the request of veterinary staff [3]	tumor levels of interleukin-1β [4]
1.4 (0.1)	1.2 (0.4)	2.6 (0.2)	268.8 (104.8)	114.5 (16.4)	17.7 (5.0)	O=c1[nH]cc(F)c(=O)[nH]1 [Formulation 5-FU, fluorouracil]	increased expression of IL-6, IL-17C, KC, and GM-CSF	epithelial erosion	significant decreases in spleen weight	5	significant weight loss	terminated after 2.5 weeks of treatment	
1.0 (0.04)	1.6 (0.1)	2.5 (0.7)	61.3 (10.0)	28.6 (5.9)	141.0 (36.1)	CC(C)Cn1cnc2c(N)nc3ccccc3c21 [IMQ, imiquimod]	upregulation of IL-17 family cytokines; also recorded: cutaneous levels of RANTES and GM-CSF were elevated	overt thickening of the epidermis	splenomegaly	2	significant weight loss		elevated
